Laboratory results as given in patent US20240327882A1, “Methods and Compositions for Increasing Bio-products in Cyanobacteria using Low-Dose Antibiotics” (priority 2023, published 2024).
Values joined by “and” are separate entries in the source; they are usually repeats but may differ in a detail not shown here. Equal entries are not always repeated. “Also recorded” adds a separate entry of the source.

Legend:
[1] = system: F. diplosiphon strain B481-SD; test: phycocyanin and chlorophyll α autofluorescence, strain B481-SD; format: cell-based, Fremyella diplosiphon; conditions: for concentrations with significant decrease in pigment (phycocyanin and chlorophyll α) autofluorescence / concentrations with significant increase in pigment (phycocyanin and chlorophyll α) autofluorescence: vs untreated control
Experimental: (§1) F. diplosiphon strains, B481-WT obtained from the UTEX algae repository (Austin, TX, United States), and B481-SD (overexpressed strain with the sterol desaturase gene; accession MH329183) were used in this study. Cultures were grown in liquid BG-11/HEPES medium under wide-spectrum red light (650 nm) with continuous shaking at 170 rpm at 28° C. in an Innova 44R shaker (Eppendorf, Hamburg, Germany) for 6 days. Light fluorescence rate was adjusted to 30 μmol m^−2 s^−1 using the model LI-190SA quantum sensor (Li-Cor, United States). These conditions were kept constant during the study.
(§2) Three classes of antibiotics: β-lactams (ampicillin), aminoglycosides (kanamycin), and tetracycline, were tested in this study. Antibiotic stock solutions (25×-100×) were prepared according to the manufacturer's instructions and stored at −20° C. […] Each antibiotic concentration was mixed with 5 ml F. diplosiphon cells adjusted to OD750 nm and 200 μl of each dilution added.
(§3) Cells grown in the absence of antibiotics or nZVIs served as control. In order to minimize the effects of light scattering, every other well was left blank. Plates were sealed with a Breathe-Easy sealing membrane (Sigma-Aldrich, MO, Lot #MKCP8263) to prevent evaporative water loss and decrease the risk of contamination.
(§4) Phycocyanin and chlorophyll α fluorescence in antibiotic-treated and control F. diplosiphon B481-WT and B481-SD were recorded every other day (48 hour intervals) using a microplate reader (BioTek Synergy H1 Microplate Reader, Agilent, USA). While chlorophyll α fluorescence was recorded at an excitation of 420 nm and emission of 680 nm, phycocyanin was measured at excitations of 590 nm, and emissions of 650 nm, see FIGS. 5-20. Maximum PSII quantum yield (Fv/Fo) of treated and controlled F. diplosiphon strains was likewise measured using MINI-PAM (Walz, Effeltrich, Germany) every 48 h for 6 days after incubating in dark for 15 min. The (Fv/Fo) was calculated using the equation

[2] = system: F. diplosiphon strain B481-SD; test: maximum PSII quantum yield (Fv/Fo), strain B481-SD; format: cell-based, Fremyella diplosiphon
Experimental: as §4

[3] = system: F. diplosiphon strain B481-WT; test: maximum PSII quantum yield (Fv/Fo), strain B481-WT; format: cell-based, Fremyella diplosiphon
Experimental: as §4

Microcystis aeruginosa = conditions: cited from earlier work
[4] = system: F. diplosiphon strain B481-SD; test: lactate dehydrogenase (LDH) activity / membrane permeability, strain B481-SD; format: cell-based, Fremyella diplosiphon
[5] = system: F. diplosiphon strain B481-WT; test: lactate dehydrogenase (LDH) activity / membrane permeability, strain B481-WT; format: cell-based, Fremyella diplosiphon
Experimental: The assay quantitatively measures released extracellular LDH activity in culture media by enzymatic reaction.
as §1
as §2, with “added. […]” for “added.”
The flasks were placed in an incubator at 37° C. in the dark for 24 h prior to lactate dehydrogenase (“LDH”) measurement. On day 6, 50 μl cultures were transferred to a 96 well clear polystyrene microplate (Corning, Inc., NY), and fluorescence Epi-RGB mode was used to macro-evaluation of antibiotic-treated both strains (Amersham Imager 680, GE Healthcare Bio-Sciences AB, Uppsala, Sweden). […] Absorbance was measured at 490 nm using a microplate reader (BioTek Synergy H1 Microplate Reader, Agilent, United States) after 2 h incubation in the dark at room temperature. The calculated average of the control included cells without antibiotics or nVZI treatment was accepted as healthy cells and results were determined by subtracting LDH activity of the control from treated cells. Microscopic observations of antibiotic-related membrane and cyanobacterial structure alterations were made using a Cytation 5 Cell Imaging Multi-Mode reader (BioTek® Instruments, Inc., Winooski, United States).

[6] = system: F. diplosiphon strain B481-WT; test: phycocyanin and chlorophyll α autofluorescence, strain B481-WT; format: cell-based, Fremyella diplosiphon; conditions: for concentrations with enhanced pigment accumulation / concentrations with significant decrease in pigment (phycocyanin and chlorophyll α) autofluorescence: vs untreated control
Experimental: as §1, §2, §3, §4

[7] = system: F. diplosiphon strain B481-SD; format: cell-based, Fremyella diplosiphon
Experimental: (§5) The flasks were placed in an incubator at 37° C. in the dark for 24 h prior to lactate dehydrogenase (“LDH”) measurement. On day 6, 50 μl cultures were transferred to a 96 well clear polystyrene microplate (Corning, Inc., NY), and fluorescence Epi-RGB mode was used to macro-evaluation of antibiotic-treated both strains (Amersham Imager 680, GE Healthcare Bio-Sciences AB, Uppsala, Sweden). Next, 50 μL of the reaction mixture (LDH Cytotoxicity Assay Kit, Thermo Fisher Scientific, United States) was added. After incubation for 30 min. at room temperature in the dark, 50 μL of stock solution was added and mixed gently (Wejnerowski et al., 2018). Absorbance was measured at 490 nm using a microplate reader (BioTek Synergy H1 Microplate Reader, Agilent, United States) after 2 h incubation in the dark at room temperature. The calculated average of the control included cells without antibiotics or nVZI treatment was accepted as healthy cells and results were determined by subtracting LDH activity of the control from treated cells. Microscopic observations of antibiotic-related membrane and cyanobacterial structure alterations were made using a Cytation 5 Cell Imaging Multi-Mode reader (BioTek® Instruments, Inc., Winooski, United States).

[8] = system: F. diplosiphon strain B481-WT; format: cell-based, Fremyella diplosiphon
Experimental: as §5

F. diplosiphon = conditions: day 6; strain not stated
[9] = system: F. diplosiphon B481-SD cultures; test: total lipid content by gravimetry; format: cell-based, Fremyella diplosiphon; conditions: 0.8 mg/L; not statistically different (p>0.05)
Experimental: (§6) Total lipids were extracted and GC×GC/TOF-MS analysis of transesterified lipids in F. diplosiphon treated with optimal ampicillin were performed. B481-SD cultures were grown under optimal conditions and harvested on day 15. Total lipids were extracted using the chloroform: methanol method described by Folch et al. (1957). Briefly, cultures were pelleted and lyophilized, and 15 mL methanol/chloroform (2:1, v/v) solvent was added to 100 mg dry weight of cells. The mixture was homogenized, incubated on ice, and centrifuged at 3000 rpm for 10 min to collect the organic phase. The biomass residue was re-extracted thrice with 4 mL of methanol and 2 mL of chloroform. The lower organic phase was dried in a rotary evaporator (Heidolph, IL, USA), and the total lipid content was estimated by gravimetry.

[10] = system: F. diplosiphon B481-SD cultures; test: GC×GC/TOF-MS analysis of transesterified lipids (FAMEs); format: cell-based, Fremyella diplosiphon; conditions: 0.8 mg/L
Experimental: as §6
Simultaneous extraction and transesterification of F. diplosiphon lipids were performed according to the method described by Wahlen et al. (2011). […] The reaction was quenched with 4 ml chloroform, washed in distilled water, and centrifuged at 2000 rpm for phase separation. The chloroform phase containing FAMEs and lipids was transferred to a new flask, and the remaining biomass was washed twice with 2 mL chloroform and mixed. The extracted FAMEs were subjected to high-resolution two-dimensional gas chromatography-time of flight mass spectrometry (GC×GC/TOF-MS) as described by Tabatabai et al. (2018).

| Structure (SMILES) | concentrations with significant decrease in pigment (phycocyanin and chlorophyll α) autofluorescence [1] | concentration of maximum LDH activity [4] | concentration of maximum LDH activity [5] | concentrations with significant increase in pigment (phycocyanin and chlorophyll α) autofluorescence [1] | concentrations with enhanced pigment accumulation [6] | concentrations with significant decrease in pigment (phycocyanin and chlorophyll α) autofluorescence [6] | concentration above which filament fragmentation and alteration of cell shape were observed [8] | concentration of maximal LDH activity (membrane permeability) (F. diplosiphon) | also measured |
| --- | --- | --- | --- | --- | --- | --- | --- | --- | --- |
| CO/N=C(\C(=O)N[C@@H]1C(=O)N2C(C(=O)O)=C(COC(C)=O)CS[C@H]12)c1csc(N)n1 [cefotaxime] | 0.8 to 102.5 mg/L | – | – | – | – | – | – | – | concentration above which there is no recovery of Fv/Fo [2]: higher than 1.6 mg/L; concentration above which there is no recovery of Fv/Fo [3]: > 0.05 mg/L |
| CC[C@H]1OC(=O)[C@H](C)[C@@H](O[C@H]2C[C@@](C)(OC)[C@@H](O)[C@H](C)O2)[C@H](C)[C@@H](O[C@@H]2O[C@H](C)C[C@H](N(C)C)[C@H]2O)[C@](C)(O)C[C@@H](C)C(=O)[C@H](C)[C@@H](O)[C@]1(C)O [erythromycin] | – | – | – | – | – | – | – | – | low dosages reported to trigger photosynthetic activity (Microcystis aeruginosa): < 20 mg/L |
| NC[C@H]1O[C@H](O[C@H]2[C@H](O)[C@@H](O[C@H]3O[C@H](CO)[C@@H](O)[C@H](N)[C@H]3O)[C@H](N)C[C@@H]2N)[C@H](O)[C@@H](O)[C@@H]1O [kanamycin] | 6.4 to 102.5 mg/L | 0.8 mg/L | 0.4 mg/L | 0.2 to 3.2 mg/L | 0.2 to 3.2 mg/L | 6.4 to 102.5 mg/L | > 51.2 mg/L | 0.8 mg/L | concentrations with decrease in Fv/Fo ratio ([3]; exposure for 6 days): 1.6 to 102.5 mg/L; concentrations with significant increase in Fv/Fo ([3]; vs control group): 0.2 to 1.6 mg/L; concentration above which filament fragmentation and alteration of cell shape were observed [7]: > 51.2 mg/L |
| CN(C)[C@@H]1C(O)=C(C(N)=O)C(=O)[C@@]2(O)C(O)=C3C(=O)c4c(O)cccc4[C@@](C)(O)[C@H]3C[C@@H]12 [tetracycline] | 102.5 to 410 mg/L | 0.8 mg/L | 0.4 mg/L | 0.8 to 12.8 mg/L | 0.8 to 12.8 mg/L | 25.6 to 410 mg/L | – | 0.8 mg/L | concentrations with significant increase in pigment autofluorescence ([1]; day 6): 0.8 to 12.8 mg/L; concentrations with significant increase in pigment autofluorescence ([6]; day 6): 0.8 to 12.8 mg/L; concentrations with decrease in Fv/Fo ratio ([2]; exposure for 6 days): higher than 102.5 mg/L |
| CC1(C)S[C@@H]2[C@H](NC(=O)[C@H](N)c3ccccc3)C(=O)N2[C@H]1C(=O)O [ampicillin] | – | – | 0.4 mg/L | 0.2 to 25.6 mg/L and 0.2 to 51.2 mg/L | – | 3.2 to 102.5 mg/L | higher than 25.6 mg/L | – | concentrations with significant increase in Fv/Fo ([2]; day 4, vs control): 0.2 to 3.2 mg/L; total lipid content compared to the control [9]: slight increase; monounsaturated fatty acids compared to the control [10]: Enhanced amounts; polyunsaturated fatty acids compared to the control [10]: Enhanced amounts; saturated fatty acids (SFAs) compared to the control [10]: augmentation; also recorded: Enhanced amounts; methyl ester of hexadecanoic acid (C16: 0) level vs untreated control ([10]; p<0.05): significantly higher; methyl octadecadienoate (C18: 2) level vs untreated control ([10]; p<0.05): significantly higher; methyloctadecenoate (C18: 1) level vs untreated control ([10]; p<0.05): significantly higher; ç-Linolenic acid (C18: 3) level vs untreated control ([10]; p<0.05): significantly higher |
